Measurements: a melting point compilation (Tetko et al.; mined from patent text by program, amines drawn as free bases though some values may be those of a salt)

For `CSCCOC(=O)N(C)c1nnc(-c2cccnc2)s1`, the melting point was 126 to 128 °C. `COc1cc2ncnc(N3CCC(C(=O)CN4C=CC(C)=NS4(=O)=O)CC3)c2cc1OC` showed a melting point of 172 to 175 °C. In the case of `CS(=O)(=O)N=C(NCCSCc1ccco1)Oc1ccccc1O`, the melting point is reported as 110 to 112 °C. In the case of `N#Cc1cnc2c(c1)N(Cc1cc(F)ccc1F)CCN2`, the melting point is reported as 204 to 206 °C. `CCCCCCCCCCCCCCCCOCCC(O)CO` (configuration not stated) gave a melting point of 60 to 61 °C. With `COCCOC(=O)C1=C(C)NC(C)=C(C(=O)OC(C)C)C1c1ccsc1Cl` (configuration not stated) the melting point was 123 to 124 °C. `CC(CN1CCCC1)Oc1ccccc1CC(=O)N1CC2C(C1)C(c1ccccc1)(c1ccccc1)CCS2=O` (racemic) showed a melting point of 126 °C. Work on `CCN(CC)c1ccc(C(=O)c2c(Cl)c(Cl)c(Cl)c(Cl)c2C(=O)O)c(C)c1` yielded a melting point of 179 to 181 °C. Work on `COC(=O)C(=O)c1ccc(OCCOc2ccccc2)cc1` yielded a melting point of 79 to 81 °C. Work on `CN1CCN(C(=NNS(=O)(=O)c2ccccc2)c2ccc(Cl)cc2Cl)CC1` yielded a melting point of 174 to 176 °C. With `CCOP(=O)(OCC)C(c1cccnc1)C(O)c1ccccc1` (configuration not stated) the melting point was 238 °C. In the case of `Cc1nc(O)c(C#N)c(C)c1Br`, the melting point is reported as 254 to 262 °C. Compound `COC(=O)c1cc(=O)c2c(C(F)(F)F)c3c(=O)cc(C(=O)OC)[nH]c3c(Cl)c2[nH]1` has a melting point of 205 to 208 °C. Work on `CCOC(=O)N(CC)c1c(OC)cc(Cc2cnc(N)nc2N)cc1OC` yielded a melting point of 165 to 167 °C. Work on `COC(=O)C(Oc1ccc(Cl)cc1)c1ccc(Oc2ccc(Cl)cc2)cc1` (configuration not stated) yielded a melting point of 100 to 102 °C. For `O=C(CN1CCN(c2cnccn2)CC1)N1CCC(CO)(c2cccc(C(F)(F)F)c2)CC1`, the melting point was 223 °C. Work on `COc1ccc(-c2c(Cl)c(CNC(C)=O)nc3sc4c(c23)CCN(Cc2ccccc2)C4)cc1OC` yielded a melting point of 172 to 174 °C. Work on `Cc1ccccc1-c1c(NC(=O)Nc2ccc(F)cc2F)c(=O)oc2c(F)cc(F)cc12` yielded a melting point of 220 to 221 °C. With `NS(=O)(=O)NCC=Cc1ccccc1` the melting point was 118 °C. `CC(=O)OCc1ncc2n1-c1ccc(Cl)cc1C(c1ccccc1F)=NC2` showed a melting point of 151 to 152 °C. `Clc1ccc(-n2cc(Br)cn2)cc1` showed a melting point of 75 to 76 °C. For `COC(=O)COc1ccc2cc(CNC(=O)c3cnn(-c4ccc(Cl)cc4)c3C(F)(F)F)ccc2c1Br`, the melting point was 206 to 207 °C. Compound `COc1cc(OC)c2c(=O)[nH]c(-c3cc(C)c(OCCN4C(=O)NC(c5ccccc5)C4=O)c(C)c3)nc2c1` (configuration not stated) has a melting point of 220 to 221 °C. `CCCCc1cc2cc(O)ccc2c(Oc2ccc(/C=C/C(=O)O)cc2)c1-c1ccccc1` gave a melting point of 128 to 130 °C. Compound `Cc1cc2c(nc1C(O)c1cccc(Cl)c1)CCCCC2` (configuration not stated) has a melting point of 123 to 125 °C. With `CCOCc1nc2c(N)nc3cc(-c4cccc(C(=O)N5CCOCC5)c4)cnc3c2n1CC(C)C` the melting point was 185 to 187 °C. `COC[C@@H](NC(C)=O)C(=O)NCc1ccc(I)cc1` showed a melting point of 159 to 160 °C. In the case of `CC(=O)Oc1cc(/C=C/c2ccccc2)cc(OC(C)=O)c1OC(C)=O`, the melting point is reported as 119 to 120 °C. With `OCC1OC(c2ccc(Cl)c(Cc3ccc(-c4ccc(F)nc4)s3)c2)C(O)C(O)C1O` (configuration not stated) the melting point was 131 to 134 °C. Work on `COc1ccc(CNc2ccccc2C(=O)Nc2ccc(F)c(C(F)(F)F)c2)cn1` yielded a melting point of 114 to 115 °C. `Cc1cc(C)cc(C(=O)N2CCC(N3CCC(C(=O)O)(c4ccccc4)CC3)CC2Cc2ccccc2)c1` (configuration not stated) gave a melting point of 259 °C. `CCCCc1nc2cccc(C(=O)OC)c2c(=O)n1Cc1ccc(-c2ccccc2-c2nnn[nH]2)cc1` gave a melting point of 133 to 143 °C. With `COc1cc(C(=O)N(C(C)C)C2CCCCC2)ccc1Cn1c(CN(C)C)nc2cccnc21` the melting point was 124 to 125 °C. Compound `CCOC(=O)C1=Cc2cc(Cl)c(F)cc2OC1C(F)(F)F` (configuration not stated) has a melting point of 97.6 to 98.6 °C. Work on `CC1=C(c2ccc(OCC(=O)O)c(Cl)c2Cl)CC(C)CC1=O` (configuration not stated) yielded a melting point of 170 to 173 °C. Work on `CCCOc1ccc(/C=C/c2nc3c(c(=O)n(CC)c(=O)n3CC)n2C)cc1` yielded a melting point of 156 °C. With `CC(C)COc1ccc2c(n1)CC(c1ccccc1)CC2=O` (configuration not stated) the melting point was 157 to 158 °C.
